Measured values as given in patent publication US7745450B2, “Pyrazolo[4,3-d]pyrimidines, processes for their preparation and methods for therapy” (Institute of Experimental Botany, priority 2002, dated 2010).
Read-outs that look alike come from different tables or passages of the source.

Legend:
cdk1/cyclin B (CDC2) = cdk1/cyclin B (CDC2) (Homo sapiens, UniProt P06493); assay: CDK inhibition assay, cdk1/cyclin B (CDC2) kinase, histone phosphorylation; assay type: biochemical
Protocol: Selected compounds were tested for cdk1/cyclin B and cdk2/cyclin E inhibitory activity to determine the basic relationships between their interaction energy of docked complex and the inhibitory activity. Cdk2/cyclin E complex was produced in SIP insect cells co-infected with appropriate baculoviral construct. The cells were harvested 70 hours post infection in lysis buffer (50 mM Tris 7.4 pH, 150 mM NaCl, 5 mM EDTA, 20 mM NaF, 1% Tween 20, protease inhibitors) for 30 min on ice and the soluble fraction was recovered by centrifugation at 14.000 g for 10 min. The protein extract was stored at −80° C. until use. The final point test system for kinase activity measurement was used to carry out experiments on the kinetics under linear conditions. The assay mixture contained 1 mg/ml histone (Sigma Type III-S), 15 μM ATP, 0.2 μCi [γ-^32P] ATP and tested compound in a final volume of 20 μl, all in reaction buffer: 50 mM Hepes 7.4 pH, 10 mM MgCl2, 5 mM EGTA, 10 mM 2-glycerolphosphate, 1 mM NaF, 1 mM DTT and protease inhibitors. […] The measurement of kinase inhibition employed the digital imaging analyzer BAS 1800. The kinase activity was expressed as a percentage of maximum activity and the IC50 value was determined by graphic analysis. The kinase activity is expressed as a percentage of maximum activity, the apparent inhibition constants are determined by graphic analysis from dose-response curves presented on FIG. 1.

IκB-α kinase = IκB-α kinase inhibition, in vitro kinase assay; assay type: biochemical
[1] = tested on: Cytokinin-dependent tobacco callus Nicotiana tabacum L. cv. Wisconsins 38; assay: Tobacco callus bioassay for cytotoxicity (herbicidal activity); assay type: cell-based
Protocol: The novel compounds have also been tested in tobacco callus bioassay for cytotoxicity (herbicidal activity) and induction of cell death. The compounds to be tested were dissolved in dimethylsulfoxide (DMSO) and the solution brought up to 10^−3 M with distilled water. […] Cytokinin-dependent tobacco callus Nicotiana tabacum L. cv. Wisconsins 38 Murashige-Skoog medium, containing per 1 liter: 4 μmol nicotinic acid, 2.4 μmol pyridoxine hydrochloride, 1.2 μmol thiamine, 26.6 μmol glycine, 1.37 μmol glutamine, 1.8 μmol myo.inositol, 30 g of sucrose, 8 g of agar, […] α-naphthylacetic acid and 0.5 μmol 6-benzylaminopurine. Sub cultivation was carried out every three weeks. Fourteen days before the bioassay, the callus tissue was transferred to the media without 6-benzylaminopurine. Compounds were tested with two different concentrations of 6-benzylaminopurine (10^−5 M and 10^−6 M). Inhibitory growth activity was determined from the increase in fresh callus weight after four weeks of cultivation. Five replicates were prepared for each concentration tested and the entire test was repeated at least twice.

[2] = Nicotiana tabacum, 672 h, read-out: 10^−5 M BAP IC50, 10^−5 M 6-benzylaminopurine, four weeks
[3] = Nicotiana tabacum, 672 h, read-out: 10^−6 M BAP IC50, 10^−6 M 6-benzylaminopurine, four weeks

Sequence of cdk1/cyclin B (CDC2) (P06493 whole entry, species assumed): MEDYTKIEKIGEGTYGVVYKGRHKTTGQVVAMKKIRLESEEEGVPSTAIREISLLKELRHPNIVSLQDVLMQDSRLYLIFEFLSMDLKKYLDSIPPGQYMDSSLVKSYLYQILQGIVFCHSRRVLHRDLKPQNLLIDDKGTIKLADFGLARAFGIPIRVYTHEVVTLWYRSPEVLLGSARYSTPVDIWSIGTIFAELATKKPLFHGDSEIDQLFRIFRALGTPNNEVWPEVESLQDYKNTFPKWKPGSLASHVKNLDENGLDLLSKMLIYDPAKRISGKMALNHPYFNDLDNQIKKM
Sequence of cdk1/cyclin B (CDC2) (P14635 whole entry partner, species assumed): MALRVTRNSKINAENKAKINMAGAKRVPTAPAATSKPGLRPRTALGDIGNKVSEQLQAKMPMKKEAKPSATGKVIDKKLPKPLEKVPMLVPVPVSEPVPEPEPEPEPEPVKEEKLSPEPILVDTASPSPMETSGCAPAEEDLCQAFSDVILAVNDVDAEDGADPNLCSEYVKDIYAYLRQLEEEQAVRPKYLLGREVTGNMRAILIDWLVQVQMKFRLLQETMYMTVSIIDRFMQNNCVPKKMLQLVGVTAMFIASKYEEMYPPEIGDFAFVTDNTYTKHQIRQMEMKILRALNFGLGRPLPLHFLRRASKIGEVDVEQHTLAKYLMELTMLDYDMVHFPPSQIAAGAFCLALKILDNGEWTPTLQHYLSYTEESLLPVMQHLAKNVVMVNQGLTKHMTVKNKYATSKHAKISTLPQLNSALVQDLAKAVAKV

SMILES	IC50 (cdk1/cyclin B (CDC2))	IC50 (IκB-α kinase)	IC50 [1, 2]	IC50 [1, 3]	IC50 ([1]; read-out: 10^−5 M BAP IC50, 10^−5 M 6-benzylaminopurine, four weeks)
CC[C@H](CO)Nc1nc(NCc2cccc(Cl)c2O)c2[nH]nc(C(C)C)c2n1	7 nM	12 nM	46000 nM	6700 nM	
CC(C)c1n[nH]c2c(NCc3cccc(Cl)c3O)nc(N[C@@H](CO)C(C)C)nc12	2 nM	4 nM	> 50000 nM	9400 nM	
CC(C)c1n[nH]c2c(NCc3ccccc3)nc(N[C@@H](CO)C(C)C)nc12	4 nM	10 nM	> 50000 nM	14000 nM	
CC(C)c1n[nH]c2c(Nc3cc(N)cc(Cl)c3)nc(N[C@@H](CO)C(C)C)nc12	8 nM	15 nM	38000 nM	4200 nM	
CC[C@H](CO)Nc1nc(Nc2cccc(Cl)c2)c2[nH]nc(C(C)C)c2n1	4 nM		45000 nM		> 50000 nM
CC(C)c1n[nH]c2c(NCc3c(N)cccc3Cl)nc(N[C@@H](CO)C(C)C)nc12	0.9 nM	2 nM	38000 nM	3700 nM	
CC[C@H](CO)Nc1nc(NCc2cccc(OC(C)=O)c2)c2[nH]nc(C(C)C)c2n1	70 nM	400 nM	> 50000 nM	28700 nM	
CC[C@H](CO)Nc1nc(NCc2cccc(C)c2O)c2[nH]nc(C(C)C)c2n1	6 nM	14 nM	> 50000 nM	12300 nM	
CC[C@H](CO)Nc1nc(Nc2ccccc2)c2[nH]nc(C(C)C)c2n1	20 nM	110 nM	48000 nM	6200 nM	
CC(C)c1n[nH]c2c(Nc3cccc(Cl)c3)nc(NC3CCCCC3N)nc12 (centres unmarked)	4 nM	12 nM	> 50000 nM	28000 nM	
CC(C)c1n[nH]c2c(Nc3ccc(C(=O)O)c(Cl)c3)nc(N[C@@H](CO)C(C)C)nc12	0.9 nM	2 nM	26000 nM	1400 nM	
CC(C)c1n[nH]c2c(NCc3ccccc3)nc(NC3CCCCC3N)nc12 (centres unmarked)	10 nM	20 nM	> 50000 nM	36000 nM	
CC[C@H](CO)Nc1nc(NCc2ccc(Cl)c(N)c2)c2[nH]nc(C(C)C)c2n1	80 nM	24 nM	25700 nM	1300 nM	
CC[C@H](CO)Nc1nc(Nc2ccc(O)c(C(=O)O)c2)c2[nH]nc(C(C)C)c2n1	10 nM	30 nM	> 50000 nM	> 50000 nM	
CC(C)c1n[nH]c2c(Nc3ccc(Cl)cc3)nc(N[C@@H](CO)C(C)C)nc12	0.5 nM	1 nM	24000 nM	2300 nM	
CC(C)c1n[nH]c2c(Nc3ccc(Cl)c(N)c3)nc(N[C@@H](CO)C(C)C)nc12	1 nM	2 nM	25000 nM	1800 nM	
CC(C)c1n[nH]c2c(Nc3ccc(Cl)c(C(=O)O)c3)nc(N[C@@H](CO)C(C)C)nc12	1 nM	2 nM	> 50000 nM	9600 nM	
CC(C)c1n[nH]c2c(Nc3ccc(Br)cc3)nc(N[C@@H](CO)C(C)C)nc12	2 nM	3 nM	> 50000 nM	> 50000 nM	
CC[C@H](CO)Nc1nc(NCc2ccccc2C(C)=O)c2[nH]nc(C(C)C)c2n1	5 nM	15 nM			

More lines, main results first:

IC50 (cdk1/cyclin B (CDC2))	IC50 (IκB-α kinase)	SMILES	IC50 [1, 2]	IC50 [1, 3]	IC50 ([1]; read-out: 10^−5 M BAP IC50, 10^−5 M 6-benzylaminopurine, four weeks)
30 nM	90 nM	Cc1n[nH]c2c(NCc3ccccc3)nc(NC3CCCCC3N)nc12 (centres unmarked)	> 50000 nM	48000 nM	
2 nM	3 nM	CC(C)c1n[nH]c2c(NCc3ccc(Cl)c(N)c3)nc(N[C@@H](CO)C(C)C)nc12	> 50000 nM	19400 nM	
200 nM	400 nM	Cc1n[nH]c2c(NCc3ccccc3)nc(NCCCN)nc12 [3-aminopropylamino; benzylamino; methyl]	> 50000 nM	45000 nM	
2 nM	4 nM	CC[C@H](CO)Nc1nc(Nc2ccc(C(=O)O)c(Cl)c2)c2[nH]nc(C(C)C)c2n1	> 50000 nM	12800 nM	
20 nM	40 nM	CC(C)c1n[nH]c2c(NCc3ccc(Cl)c(N)c3N)nc(N[C@@H](CO)C(C)C)nc12	15600 nM	400 nM	
5 nM		CC(C)c1n[nH]c2c(NCc3ccccc3)nc(NC3CCC(N)CC3)nc12 (centres unmarked) [Compound 268, 3-isopropyl-5-(4-aminocyclohexylamino)-7-benzylamino-pyrazolo[4,3-d]pyrimidine]	> 50000 nM	32000 nM	
6 nM	12 nM	CC(=O)Oc1ccccc1CNc1nc(N[C@@H](CO)C(C)C)nc2c(C(C)C)n[nH]c12	38000 nM	4200 nM	
1 nM	3 nM	CC(C)c1n[nH]c2c(Nc3ccccc3)nc(N[C@@H](CO)C(C)C)nc12	42000 nM	4800 nM	
2 nM	3 nM	CC(C)c1n[nH]c2c(Nc3ccc(N)c(Cl)c3)nc(N[C@@H](CO)C(C)C)nc12	16000 nM	900 nM	
140 nM	250 nM	CC(C)c1n[nH]c2c(Nc3cccc(Cl)c3)nc(NCCN)nc12	> 50000 nM	48000 nM	
1 nM	2 nM	Cc1cccc(CNc2nc(N[C@@H](CO)C(C)C)nc3c(C(C)C)n[nH]c23)c1O	> 50000 nM	10700 nM	
6 nM	15 nM	COc1cccc(CNc2nc(N[C@@H](CO)C(C)C)nc3c(C(C)C)n[nH]c23)c1O	> 50000 nM	21600 nM	
20 nM	50 nM	Cc1n[nH]c2c(NCc3ccccc3)nc(NC3CCC(N)CC3)nc12 (centres unmarked)	> 50000 nM	43000 nM	
2 nM	10 nM	CC[C@H](CO)Nc1nc(Nc2ccc(Br)cc2)c2[nH]nc(C(C)C)c2n1	38000 nM	4300 nM	
4 nM	12 nM	CC[C@H](CO)Nc1nc(NCc2cccc(OC)c2O)c2[nH]nc(C(C)C)c2n1	> 50000 nM	14800 nM	
20 nM	80 nM	CC(C)c1n[nH]c2c(Nc3cccc(Cl)c3)nc(NCCCN)nc12	> 50000 nM	45000 nM	
2000 nM	5000 nM	Cc1n[nH]c2c(NCc3ccccc3)nc(NCCN)nc12 [2-aminoethylamino; benzylamino; methyl]	> 50000 nM	> 50000 nM	
2 nM	9 nM	CC[C@H](CO)Nc1nc(Nc2ccc(N)c(Cl)c2)c2[nH]nc(C(C)C)c2n1	48000 nM	8700 nM	
20 nM	60 nM	CC(=O)Oc1cccc(CNc2nc(N[C@@H](CO)C(C)C)nc3c(C(C)C)n[nH]c23)c1	36000 nM	8500 nM	
10 nM	20 nM	Cc1n[nH]c2c(NCc3ccccc3)nc(N[C@@H](CO)C(C)C)nc12	> 50000 nM	28000 nM	
4 nM	9 nM	CC(C)c1n[nH]c2c(Nc3cccc(Cl)c3)nc(N[C@@H](CO)C(C)C)nc12	> 50000 nM	11000 nM	
4 nM	20 nM	CC[C@H](CO)Nc1nc(Nc2cc(N)cc(Cl)c2)c2[nH]nc(C(C)C)c2n1	36000 nM	2800 nM	
100 nM	300 nM	CC[C@H](CO)Nc1nc(NCc2ccccc2)c2[nH]nc(C)c2n1	> 50000 nM	37000 nM	
3 nM	9 nM	CC[C@H](CO)Nc1nc(Nc2ccc(Cl)cc2)c2[nH]nc(C(C)C)c2n1	35000 nM	3900 nM	
1 nM	2 nM	CC[C@H](CO)Nc1nc(Nc2ccc(Cl)c(C(=O)O)c2)c2[nH]nc(C(C)C)c2n1	28000 nM	1500 nM	
40 nM	90 nM	CC(=O)c1cccc(CNc2nc(NCCO)nc3c(C)n[nH]c23)c1			
10 nM	20 nM	Cc1n[nH]c2c(Nc3cc(N)cc(Cl)c3)nc(NCCO)nc12			
